{
  "source": "ChEMBL document CHEMBL1137498",
  "about": "“Design, synthesis and biological evaluation of novel lipoamino acid-based glycolipids for oral drug delivery” (Bioorg Med Chem, 2007)",
  "key": {"Bacillus subtilis": {"tested_on": "Bacillus subtilis", "assay": "Antibacterial activity against Bacillus subtilis", "assay_type": "functional"}, "Pseudomonas aeruginosa": {"tested_on": "Pseudomonas aeruginosa", "assay": "Antibacterial activity against Pseudomonas aeruginosa", "assay_type": "functional"}, "Klebsiella aerogenes": {"tested_on": "Klebsiella aerogenes", "assay": "Antibacterial activity against Klebsiella aerogenes", "assay_type": "functional"}, "Staphylococcus aureus": {"tested_on": "Staphylococcus aureus", "assay": "Antibacterial activity against Staphylococcus aureus", "assay_type": "functional"}, "Escherichia coli": {"tested_on": "Escherichia coli", "assay": "Antibacterial activity against Escherichia coli", "assay_type": "functional"}, "[1]": {"assay": "Apparent permeability across Caco-2 cells", "assay_type": "ADME, cell-based", "details": "human"}},
  "data": [
    {"smiles": "CCN1CCN(C(=O)N[C@@H](C(=O)N[C@@H]2C(=O)N3[C@@H]2SC(C)(C)[C@@H]3C(=O)O)c2ccccc2)C(=O)C1=O", "note": "[PIPERACILLIN]", "values": [
      {"measurement": "MIC", "setting": "Bacillus subtilis", "result": 0.5, "unit": "µg/mL"},
      {"measurement": "MIC", "setting": "Pseudomonas aeruginosa", "result": 4, "unit": "µg/mL"},
      {"measurement": "MIC", "setting": "Klebsiella aerogenes", "result": 8, "unit": "µg/mL"},
      {"measurement": "MIC", "setting": "Staphylococcus aureus", "result": 1, "unit": "µg/mL"},
      {"measurement": "MIC", "setting": "Escherichia coli", "result": 4, "unit": "µg/mL"},
      {"measurement": "Papp", "setting": "[1]", "result": 0.0325, "unit": "×10⁻⁶ cm/s"}
    ]}
  ]
}
